Drawing on paper PMC10761937, “Functional engineering of human iPSC‐derived parasympathetic neurons enhances responsiveness to gastrointestinal hormones” (FEBS Open Bio, 2023), this text covers Firing frequency for one substance.

This assay concerns NPY2R‐neurons. Put plainly: MEA recording of neuronal firing, NPY2R‐neurons. The note with it: PYY, 10 nM or 100 nM (both printed in Fig. 6 legend); day 27; 0 nM n = 8 electrodes, 100 nM n = 6 electrodes; Fig. 6F. It counts as cell-based, human. As to the method:
Before initiating differentiation, the iPSCs (1–2 × 10^5 cells·cm^−2; Cell lines and cell culture section) were transferred to 6‐well plates (Corning, Inc., Corning, NY, USA) coated with 2‐methacryloyloxyethyl phosphorylcholine (MPC) polymer (Lipidure CM5206E; NOF, Tokyo, Japan). The cells were maintained in mTeSR1 cGMP medium containing 10 μM Y‐27632 (Fujifilm Wako Pure Chemical Industries) for 2 or 3 days to form embryoid body (EBs) in a rotary shaker at 95 r.p.m. (OS‐762RC; Optime, Tokyo, Japan). Subsequently, iPSCs were differentiated into neural crest cells (NCCs), as previously reported. Briefly, NCCs were induced from Ebs using knockout serum replacement (KSR) medium and N2 medium with graded addition of nerve growth factors and signaling factors. KSR medium was composed of DMEM‐F12 (Fujifilm Wako Pure Chemical Industries), 20% KSR (Thermo Fisher Scientific), 1% NEAA, 1% monothioglycerol (Fujifilm Wako Pure Chemical Industries), and 1% P/S. N2 medium consisted of DMEM‐F12, 1% N2 supplement (Fujifilm Wako Pure Chemical Industries), 1% NEAA, and 1% P/S. When EB formation was considered day 0 of induction, the medium was changed at days 2, 5, 7, 9, and 12. […]

In the case of “PYY: PYY (4400‐v; Peptide Institute, Inc.); PYY (3–36) in Ca2+ imaging”, the Firing frequency entry is “significantly increased fluorescence intensity and firing frequency”.
